Holding throughout (type): in vivo
Data set [1] concerns house-fly adults (Musca domestica). Nature of the data set: knock-down of house-fly adults by 0.1% oil spray in glass chamber (Experimental Example 3). To be noted: 0.7 ml, (70 cm)^3 glass chamber. On the procedure: Each of the following present compounds is formulated into a 0.1% oil spray using deodorized kerosene. The following compounds as a control are also likewise treated.
About 50 house-fly adults (Musca domestica) are liberated in a (70 cm)^3 glass chamber. Thereafter, 0.7 ml of each oil spray is sprayed under a pressure of 1.5 kg/cm^2 and the knock-down of the insects with the lapse of time is observed. This test is repeated several times with each oil spray to obtain the values of KT50 (time required for 50% knock-down) as shown in the following table. The present compounds are indicated by the foregoing compound number.

For data set [2], the system named is smaller brown planthoppers (Laodelphax striatellus). The data set is described as follows: LC50 against smaller brown planthoppers on sprayed rice plants (Experimental Example 2). To be noted: 24 h. The protocol: The following compounds as a control are also treated in the same manner as described above.
The emulsifiable concentrates thus formulated were diluted with water to a required concentration. Each test solution thus prepared was individually sprayed on the rice plants in a pot which had elapsed 25 days after sowing, in a proportion of 10 ml/pot. Thereafter, each pot was covered with a cylindrical wire net and 15 smaller brown planthoppers (Laodelphax striatellus) were liberated in the pot. After one day, the dead and alive were observed and the value of LC50 of every concentrate was obtained from the mortality.
The compounds of the present invention are expressed by the foregoing compound number.

Data set [3] concerns Carmine mite female adults (Tetranychus cinnabarinus). The data set is described as follows: damage of kidney beans by carmine mites (Example 20). Conditions: emulsifiable concentrate of Preparation Example 1 diluted 500 times; 10 cc/pot; after 10 days. On the procedure:
To 20 parts of each of the present compounds (1), (2), (3), (4), (5), (8), (10), (11), (14), (18), (19), (21), (23), (28), (30) and (33) are added 20 parts of Sorpol SM-200 (the same as above) and 60 parts of xylene. The mixtures are each thoroughly mixed to make a solution. Thus emulsifiable concentrate of each compound is obtained.
Carmine mite female adults (Tetranychus cinnabarinus) were made parasitic on the leaves of potted kidney beans (2-leaf stage) which had elapsed 9 days after sowing, in a proportion of 10-15/leaf. […] Among the emulsifiable concentrates formulated according to Preparation Example 1, those containing the present compounds (1), (4), (14), (19), (23), (30) and (33) were each diluted 500 times with water. At this time, each test solution thus prepared was sprayed in a proportion of 10 cc/pot by means of a turn table. After 10 days, damage of the kidney beans by the insects was checked.

Data set [4] relates to armyworms and cutworms, cabbage worm and diamond-back moth. The data set is described as follows: green-house test on chinese cabbages with armyworms and cutworms, cabbage worm and diamond-back moth (Example 21). Conditions: 20% solution in cellosolve; active ingredient 50 g/10 are. The protocol: A green-house (3 m in height) was divided into plots having an area of 30 m^2 and chinese cabbages were grown up therein. Thereafter, armyworms and cutworms, cabbage worm and diamond-back moth were artificially made parasitic on the cabbages. The present compounds (1), (3) and (4) were each dissolved in cellosolve to make a 20% solution. Each test solution thus prepared was sprayed under pressure on the cabbages so that the amount of the active ingredient becomes 50 g/10 are.

Data set [5] relates to green rice leafhopper adults (Nephotettix cincticeps). Nature of the data set: kill of green rice leafhopper adults by dusts on rice plants (Example 18). To be noted: dust of Preparation Example 6 (with piperonyl-butoxide), 3 kg/10 are; after one day; 1440 min. The protocol:
One part of each of the present compounds (2), (4), (5), (7), (12), (17), (20), (21), (22), (25), (26), and (35) and 5 parts of piperonyl-butoxide are dissolved in 20 parts of acetone, and then 94 parts of 300 mesh talc are added thereto. After thoroughly mixing in a mortar while stirring, acetone is removed by evaporation. Thus dust of each compound is obtained.
Among the dusts formulated according to Preparation Example 6, those containing the present compounds (2), (7), (12), and (25) were each dusted, using Belljar duster, on the rice plants in a 1/50,000 Wagner pot which had elapsed 45 days after sowing, in a proportion of 3 kg/10 are. After covering the pot with wire net, about 30 green rice leafhopper adults (Nephotettix cincticeps) were liberated therein. After one day, more than 70% of the test insects were killed.

Where [6] appears, read: rice plants sprayed 10 ml/pot, after one day, read-out: LC50.

Each structure is given as a SMILES string. Converted amounts (≈) assume the structure as drawn. Read-outs that look alike come from different tables or passages of the source.

Turning to `C=CCC1=C(C)C(OC(=O)C2C(C=C(C)C)C2(C)C)CC1=O` (centres unmarked) [Allethrin, reference compound], the “KT50 (time required for 50% knock-down)” value in data set [1] is 504 s.
Consider `C#CCC=C(C)C(C#C)OC(=O)C(c1ccc(Cl)cc1)C(C)C` (stereo not drawn) [Compound 1, 4-Methylocta-4-ene-1,7-diyne-3-yl α-isopropyl-4-chlorophenylacetate], for which, in data set [2] (setting [6]), the median lethal concentration (LC50) was 23 µg/mL (≈ 69.9 µM). For the same compound, the “KT50 (time required for 50% knock-down)” value in data set [1] is 128 s. Besides, the “increase in damage of the kidney beans” value in data set [3] is “an increase in the damage was not observed”. Moreover, the “spread of damage by the insect” value in data set [4] is recorded as “no spread of damage by the insect was observed”.
Consider `C#CCC=C(C)C(C#C)OC(=O)C(c1ccc(Cl)c(Cl)c1)C(C)C` (stereo not drawn) [Compound 2, 4-Methylocta-4-ene-1,7-diyne-3-yl α-isopropyl-3,4-dichlorophenyl-acetate], for which the LC50 in data set [2] (setting [6]) was 31 µg/mL (≈ 85.3 µM). The test insects killed result in data set [5] is “more than 70%”.
Consider `C#CCC=C(C)C(C#C)OC(=O)C(c1ccc(OC)cc1)C(C)C` (stereo not drawn) [Compound 3, 4-Methylocta-4-ene-1,7-diyne-3-yl α-isopropyl-4-methoxyphenylacetate], for which the LC50 in data set [2] (setting [6]) was 35 µg/mL (≈ 108 µM). The “KT50 (time required for 50% knock-down)” value in data set [1] is 139 s. Also, the “spread of damage by the insect” value in data set [4] is “no spread of damage by the insect was observed”.
For the compound `C#CCC=C(C)C(C#C)OC(=O)C(c1ccc2c(c1)OCO2)C(C)C` (stereo not drawn) [Compound 4, 4-Methylocta-4-ene-1,7-diyne-3-yl α-isopropyl-3,4-methylenedioxyphenyl-acetate], the LC50 in data set [2] (setting [6]) is 28 µg/mL (≈ 82.7 µM). In addition, the “KT50 (time required for 50% knock-down)” value in data set [1] came out at 136 s. The “increase in damage of the kidney beans” value in data set [3] is “an increase in the damage was not observed”. Also, in data set [4], the “spread of damage by the insect” value is listed as “no spread of damage by the insect was observed”.
With `C#CCC=C(C)C(C#C)OC(=O)C(c1ccc2c(c1)CCCC2)C(C)C` (stereo not drawn) [Compound 5, 4-Methylocta-4-ene-1,7-diyne-3-yl α-isopropyl-3,4-tetramethylenephenyl-acetate], the “KT50 (time required for 50% knock-down)” value in data set [1] was 140 s.
Turning to `C#CCC=C(C)C(C#C)OC(=O)C(c1coc(C)c1)C(C)C` (centres unmarked) [Compound 6, 4-Methylocta-4-ene-1,7-diyne-3-yl 2-(5-methyl-3-furyl)-isovalerate], the median lethal concentration (LC50) in data set [2] (setting [6]) was 32 µg/mL (≈ 107 µM).
Turning to `C#CCC=C(C)C(C#C)OC(=O)C(c1csc(C)c1)C(C)C` (centres unmarked) [Compound 7, 4-Methylocta-4-ene-1,7-diyne-3-yl 2-(5-methyl-3-thienyl)-isovalerate], the “KT50 (time required for 50% knock-down)” value in data set [1] is 175 s. The test insects killed entry in data set [5] is given as “more than 70%”.
Consider `C#CCC=C(CC)C(C#C)OC(=O)C(c1ccc(Cl)cc1)C(C)C` (stereo not drawn) [Compound 10, 4-Ethylocta-4-ene-1,7-diyne-3-yl α-isopropyl-4-chlorophenylacetate], for which the 50% lethal concentration (LC50) in data set [2] (setting [6]) was determined as 34 µg/mL (≈ 99.2 µM).
Take `C#CCCC=C(C)C(C#C)OC(=O)C(c1ccc(Br)cc1)C(C)C` (stereo not drawn) [Compound 11, 4-Methylnona-4-ene-1,8-diyne-3-yl α-isopropyl-4-bromophenylacetate]: in data set [1], the “KT50 (time required for 50% knock-down)” value came out at 147 s.
Turning to `C#CC(OC(=O)C(c1ccc(F)cc1)C(C)C)C(C)=CCc1ccccc1` (stereo not drawn) [Compound 12, 6-Phenyl-4-methylhexa-4-ene-1-yne-3-yl α-isopropyl-4-fluoro-phenylacetate], in data set [5], the test insects killed entry is listed as “more than 70%”.
With `C#CC(OC(=O)C(c1ccc(OC)cc1)C(C)C)C(C)=CCCC=C` (stereo not drawn) [Compound 14, 4-Methylnona-4,8-diene-1-yne-3-yl α-isopropyl-4-methoxyphenylacetate], the LC50 in data set [2] (setting [6]) is 46 µg/mL (≈ 135 µM). The “KT50 (time required for 50% knock-down)” value in data set [1] amounted to 174 s. Also, the “increase in damage of the kidney beans” value in data set [3] was “an increase in the damage was not observed”.
As to `C#CCC=C(C)C(C#C)OC(=O)C(c1ccc(OC)c(OC)c1)C(C)(C)C` (stereo not drawn) [Compound 19, 4-Methylocta-4-ene-1,7-diyne-3-yl α-t-butyl-3,4-dimethoxyphenyl-acetate], in data set [2] (setting [6]), the median lethal concentration (LC50) is 43 µg/mL (≈ 117 µM). Besides, the “increase in damage of the kidney beans” value in data set [3] is given as “an increase in the damage was not observed”.
As for `C#CCCC=C(C)C(C#C)OC(=O)C(CC)c1ccc(C#N)cc1` (stereo not drawn) [Compound 23, 4-Methylnona-4-ene-1,8-diyne-3-yl α-ethyl-4-cyanophenylacetate], the LC50 in data set [2] (setting [6]) turned out to be 50 µg/mL (≈ 157 µM). Also, in data set [1], the “KT50 (time required for 50% knock-down)” value amounted to 140 s. In addition, the “increase in damage of the kidney beans” value in data set [3] is on record as “an increase in the damage was not observed”.
For the compound `C#CCC(C(=O)OC(C#C)C(=CCCC=C)CC)c1ccc(CC)cc1` (stereo not drawn) [Compound 25, 4-Ethylnona-4,8-diene-1-yne-3-yl α-propargyl-4-ethylphenylacetate], the test insects killed result in data set [5] is given as “more than 70%”.
On to `C#CC(C=Cc1ccccc1)OC(=O)C(c1ccc(SC)cc1)C(C)C` (stereo not drawn) [Compound 27, 5-Phenylpenta-4-ene-1-yne-3-yl α-isopropyl-4-methylthiophenyl-acetate], for which the LC50 in data set [2] (setting [6]) is 66 µg/mL (≈ 181 µM).
Same read-out and setting: then `C#CCC=C(C)C(C#C)OC(=O)C(c1cc2c(s1)CCCC2)C(C)C` (centres unmarked) [Compound 29], with 48 µg/mL (≈ 135 µM).
Turning to `C#CCC=C(C)C(C#C)OC(=O)C(c1cc2c(s1)CCC2)C(C)C` (centres unmarked) [Compound 30, 4-Methylocta-4-ene-1,7-diyne-3-yl 2-(4,5-tri-methylene-thienyl)-isovalerate], in data set [1], the “KT50 (time required for 50% knock-down)” value is 158 s. In data set [3], the “increase in damage of the kidney beans” value was “an increase in the damage was not observed”.
Take `C#CCC=C(C)C(C#C)OC(=O)C(c1ccc2c(c1)CCC2)C(C)C` (centres unmarked) [Compound 33, 4-Methylocta-4-ene-1,7-diyne-3-yl 2-(5-indanyl)-isovalerate]: in data set [3], the “increase in damage of the kidney beans” value is on record as “an increase in the damage was not observed”.
Turning to `C#CCC=C(C)C(C#C)OC(=O)C(c1cc2ccccc2o1)C(C)C` (centres unmarked) [Compound 34, 4-Methylocta-4-ene-1,7-diyne-3-yl 2-(2-benzo-furyl)-isovalerate], the “KT50 (time required for 50% knock-down)” value in data set [1] came to 170 s.
`CNC(=O)Oc1ccccc1Cl` [Hopcide, reference compound] gave an LC50 in data set [2] of 75 µg/mL (≈ 404 µM).
For `CC(C)=CC1C(C(=O)OCc2coc(Cc3ccccc3)c2)C1(C)C` (centres unmarked) [Resmethrin, reference compound], the “KT50 (time required for 50% knock-down)” value in data set [1] is > 600 s.
As to `COc1ccc(C(C(=O)OC(C#N)c2cccc(Oc3ccccc3)c2)C(C)C)cc1` (centres unmarked) [drawing 45, reference compound], the median lethal concentration (LC50) in data set [2] (setting [6]) turned out to be 73 µg/mL (≈ 176 µM).
For `COc1ccc(C(C(=O)OC(C#N)c2cccc(Oc3ccccc3)c2)C(C)C)cc1` (centres unmarked) [drawing 50, reference compound], the “KT50 (time required for 50% knock-down)” value in data set [1] worked out at 490 s.
In the case of `COc1ccc(C(C(=O)OCc2cccc(Oc3ccccc3)c2)C(C)C)cc1` (centres unmarked) [reference compound], in data set [2] (setting [6]), the LC50 stood at 87 µg/mL (≈ 223 µM).
`C#CCc1ccc(COC(=O)C(c2ccc(Cl)cc2)C(C)C)o1` (centres unmarked) [reference compound]: the median lethal concentration (LC50) in data set [2] (setting [6]) stood at 68 µg/mL (≈ 206 µM).
Turning to `CC(C)C(C(=O)OCc1coc(Cc2ccccc2)c1)c1ccc(Cl)cc1` (centres unmarked) [reference compound], the “KT50 (time required for 50% knock-down)” value in data set [1] is 510 s.
As for `C#CCc1ccc(C(C#C)OC(=O)C(c2ccc(OC)cc2)C(C)C)o1` (centres unmarked) [reference compound], the “KT50 (time required for 50% knock-down)” value in data set [1] was found to be 183 s.

For the origin of these results see US4309439A, “Substituted-acetic acid ester” (Sumitomo Chemical Company, Limited, priority 1975, dated 1982).
